Data: patent US10485880B2, “Antibody-drug conjugates (ADCs) of KSP inhibitors with aglycosylated anti-TWEAKR antibodies” (Bayer Pharma Aktiengesellschaft, priority 2015, dated 2019)

Experiments:
NCI-H292 cells = experiment: Cytotoxicity of metabolites, MTT assay, NCI-H292; type: cell-based, human
Description: NCI-H292: human mucoepidermoid lung carcinoma cells, ATCC-CRL-1848, standard medium: RPMI 1640 (Biochrom; #FG1215, stab. glutamine)+10% FCS (Biochrom; #S0415), TWEAKR-positive, EGFR-positive.
The cells were cultivated according to the standard method using the growth media listed under C-1. The test is carried out by detaching the cells with a solution of Accutase in PBS (Biochrom AG #L2143), pelleting, resuspending in culture medium, counting and sowing into a 96-well culture plate with white bottom (Costar #3610) (NCI H292: 2500 cells/well, KPL-4: 1200 cells/well, LoVo: 1000 cells/well in a total volume of 100 μl). The cells were then incubated in an incubator at 37° C. and 5% carbon dioxide. After 48 h, the medium was replaced. The metabolites in 10 μl of culture medium in concentrations from 10^−5M to 10^−13M were then pipetted to the cells (in triplicate), and the assay was then incubated in an incubator at 37° C. and 5% carbon dioxide. […] To this end, the MTT reagent was incubated with the cells for 4 h, followed by lysis of the cells overnight by addition of the detergent. The dye formed was detected at 570 nm (Infinite M1000 pro, Tecan). The measured data were used to calculate the IC50 of the growth inhibition using the DRC (dose response curve). […]

TWEAKR = biological target: T1, TWEAKR (Homo sapiens, UniProt Q9NP84); experiment: Agonistic activity of anti-TWEAKR antibodies; type: cell-based
T1 construct: endogenous in cells; host or cells: HT29 (also WiDr, A253, NCI-H322, 786-O)
T1 sequence (Q9NP84 28-129): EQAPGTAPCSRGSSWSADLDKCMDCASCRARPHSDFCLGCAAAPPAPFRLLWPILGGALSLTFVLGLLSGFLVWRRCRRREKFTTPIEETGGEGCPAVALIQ
Source text: In this regard, one embodiment of the invention is the provision of antibodies or antigen-binding antibody fragments thereof binding specifically to a TWEAKR at a new epitope, distinguished by selective binding to aspartate (D) at position 47 (D47) of TWEAKR (SEQ ID NO: 169; see also FIG. 1). The identified dependencies of certain TWEAKR amino acids for antibody interaction correlate with the agonistic activity determined for these antibodies. […] Thus, TWEAK binds to a similar, but distinguishable binding site (FIG. 7). Accordingly, the antibodies of the present invention, which show strong agonistic activity, bind to a new epitope (as a function of D47) which is associated with very strong agonistic activity.

CC(C)(C)[C@H](c1cc(-c2cc(F)ccc2F)cn1Cc1ccccc1)N(CC[C@H](N)C(=O)NCCNC(=O)CNC(=O)CC(SC[C@H](N)C(=O)O)C(=O)O)C(=O)CO (stereo partly drawn) [Example M2-1, 4-[(2-{[2-({(2S)-2-Amino-4-[{(1R)-1-[1-benzyl-4-(2,5-difluorophenyl)-1H-pyrrol-2-yl]-2,2-dimethylpropyl}(glycoloyl)amino]butanoyl}amino)ethyl]amino}-2-oxoethyl)amino]-2-{[(2R)-2-amino-2-carboxyethyl]sulphanyl}-4-oxobutanoic acid/trifluoroacetic acid (1:1)]
IC50 (NCI-H292 cells; 96 h incubation): 265 nM

CC(C)(C)[C@H](c1cc(-c2cc(F)ccc2F)cn1Cc1ccccc1)N(CCCN)C(=O)CO [Example M9, N-(3-Aminopropyl)-N-{(1R)-1-[1-benzyl-4-(2,5-difluorophenyl)-1H-pyrrol-2-yl]-2,2-dimethylpropyl}-2-hydroxyacetamide]
IC50 (NCI-H292 cells; Homo sapiens, NCI-H292, 96 h incubation): 0.924 nM

B1: PLD-192: "PLD-192 shows moderate agonistic activity and binds as a function of R56 to the cysteine-rich domain, but opposite of the TWEAK ligand site" (antibody, chains of the INN, looked up, V domains shown)
VH: EVQLVESGGGLVQPGGSLRLSCAASGFTFSSYWMSWVRQAPGKGLEWVAEIRLKSDNYATHYAESVKGRFTISRDDSKNSLYLQMNSLRAEDTAVYYCTGYYADAMDYWGQGTLVTVSS
VL: DIQMTQSPSSLSASVGDRVTITCRASQSVSTSSYSYMHWYQQKPGKAPKLLIKYASNLESGVPSRFSGSGSGTDFTLTISSLQPEDFATYYCQHSWEIPYTFGGGTKVEIK
Agonistic activity (TWEAKR): moderate agonistic activity
